The values below come from PMC10584170, “Machine learning-based phenotypic imaging to characterise the targetable biology of Plasmodium falciparum male gametocytes for the development of transmission-blocking antimalarials” (PLOS Pathogens, 2023).

The test system of data set [1] is P. falciparum male gametocytes. As to the kind of experiment: P. falciparum Dual Gamete Formation Assay (PfDGFA), male readout (exflagellation). The class given is cell-based, Plasmodium falciparum NF54. To be noted: for Selectivity Ratio M: HepG2 Tox50 versus male IC50; for Average inhibition male (%) / % inhibition male (individual replicates) R1 / % inhibition male (individual replicates) R3 / % inhibition male (individual replicates) R4: 24h preincubation with gametocytes; for Average inhibition male (%): average of replicates; for % inhibition male (individual replicates) R1: replicate R1; for % inhibition male (individual replicates) R3: replicate R3; for % inhibition male (individual replicates) R4: replicate R4; for IC50: PfDGFA, 24 h incubation with gametocytes before induction, exflagellation readout, read-out: Male IC50; for HitlevelM: number of replicates with >50% inhibition in the male readout. The procedure, abridged: (§1)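 NF54 mature gametocytes (d14), cpd 24 h 37°C hypoxic gas; trigger: xanthurenic acid ookinete medium + Cy3 anti-Pfs25, 4°C 4 min → 28°C 4 min. Male: exflagellation centres, brightfield x6. Female: Pfs25+ gametes, fluorescence, +24 h 28°C dark.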

In data set [2] the test system is P. falciparum female gametocytes. As to the kind of experiment: P. falciparum Dual Gamete Formation Assay (PfDGFA), female readout (Pfs25-positive female gametes). The class given is cell-based, Plasmodium falciparum NF54. The note with it: for Selectivity ratio F: HepG2 Tox50 versus female IC50; for Average inhibition female (%) / % inhibition female (individual replicates) R1 / % inhibition female (individual replicates) R3 / % inhibition female (individual replicates) R4: 24h preincubation with gametocytes; for Average inhibition female (%): average of replicates; for % inhibition female (individual replicates) R1: replicate R1; for % inhibition female (individual replicates) R3: replicate R3; for % inhibition female (individual replicates) R4: replicate R4; for IC50: PfDGFA, 24 h incubation with gametocytes before induction, female gamete readout, read-out: Female IC50; for HitlevelF: number of replicates with >50% inhibition in the female readout. The procedure, abridged:
as §1

For a further data set, the system named is HepG2 cells. Description: HepG2 cytotoxicity counter-screen. The note with it: cytotoxic activity against HepG2 cells. For orientation: Counterscreens check selectivity or assay interference.

In general, IC50 refers to the midpoint of a concentration-inhibition curve.

Structures are written as SMILES.

Take `CCCCOc1ccc(CNCCCCCCNCc2ccc(OCCCC)c3ccccc23)c2ccccc12.CS(=O)(=O)O` [TCMDC-137281]: in data set [1], the “Selectivity Ratio M” value was 2.64 and the IC50 amounted to 550 nM. Also, in data set [1] (PfDGFA at 2µM), the “Average inhibition male (%)” value is listed as 88.9%, the “% inhibition male (individual replicates) R1” value is recorded as 95.9%, the “% inhibition male (individual replicates) R3” value amounted to 90.2% and the “% inhibition male (individual replicates) R4” value is 93.5%. This molecule also registered a HitlevelM in data set [1] (2µM) of 4. For the same molecule, in data set [2], the “Selectivity ratio F” value amounted to 2.64 and the IC50 was 550 nM. Also, in data set [2] (PfDGFA at 2µM), the “Average inhibition female (%)” value turned out to be 94.7%, the “% inhibition female (individual replicates) R1” value worked out at 94.0%, the “% inhibition female (individual replicates) R3” value is on record as 97.9% and the “% inhibition female (individual replicates) R4” value is 90.5%. This molecule returned a HitlevelF in data set [2] (2µM) of 4. The Tox50 in the data set on HepG2 cells is reported as 1.45 µM.

As for `CS(=O)(=O)O.FC(F)(F)COc1ccc(CCNCCCCNCCc2ccc(OCC(F)(F)F)c3ccccc23)c2ccccc12` [TCMDC-137282], in data set [1] (2µM), the “Average inhibition male (%)” value was 98.5%, the “% inhibition male (individual replicates) R1” value was 98.3% and the “% inhibition male (individual replicates) R4” value is recorded as 97.4%. In data set [1], the “Selectivity Ratio M” value was 4.68 and the IC50 was 510 nM. In data set [2] (2µM), the “Average inhibition female (%)” value was found to be 56.0%, the “% inhibition female (individual replicates) R1” value stood at 58.1%, the “% inhibition female (individual replicates) R3” value is reported as 59.1% and the “% inhibition female (individual replicates) R4” value stood at 54.8%. In addition, in data set [2], the “Selectivity ratio F” value was found to be 1.73 and the IC50 is 1380 nM. The Tox50 in the data set with HepG2 cells was found to be 2.39 µM.

Take `COc1ccc2c(CNCCCCCCNCc3c(OC)ccc4cc(OC)ccc34)c(OC)ccc2c1.CS(=O)(=O)O` [TCMDC-137300]: in data set [1] (2µM), the “Average inhibition male (%)” value is 90.0%, the “% inhibition male (individual replicates) R1” value is listed as 98.2%, the “% inhibition male (individual replicates) R3” value came to 95.7% and the “% inhibition male (individual replicates) R4” value came to 96.8%. Further, in data set [1], the “Selectivity Ratio M” value came out at 2.01 and the IC50 turned out to be 1810 nM. In data set [2] (2µM), the “Average inhibition female (%)” value is listed as 77.0%, the “% inhibition female (individual replicates) R1” value came out at 80.6%, the “% inhibition female (individual replicates) R3” value amounted to 93.8% and the “% inhibition female (individual replicates) R4” value came out at 84.0%. In data set [2], the “Selectivity ratio F” value amounted to 0.75 and the IC50 came to 4850 nM. In the data set with HepG2 cells, this molecule gave a Tox50 of 3.63 µM.

With `CS(=O)(=O)O.FC(F)(F)COc1ccc2ccccc2c1CCNCCCCNCCc1c(OCC(F)(F)F)ccc2ccccc12` [TCMDC-137317], in data set [1], the “Selectivity Ratio M” value turned out to be 0.53 and the IC50 stood at 1520 nM. In addition, in data set [1] (PfDGFA at 2µM), the “Average inhibition male (%)” value is recorded as 88.2%, the “% inhibition male (individual replicates) R1” value is listed as 92.7%, the “% inhibition male (individual replicates) R3” value came to 68.3% and the “% inhibition male (individual replicates) R4” value is 96.2%. The molecule further came in with a HitlevelM in data set [1] (2µM) of 4. In data set [2], the “Selectivity ratio F” value is recorded as 0.26 and the IC50 amounted to 3050 nM. Also, in data set [2] (PfDGFA at 2µM), the “Average inhibition female (%)” value is recorded as 40.6%, the “% inhibition female (individual replicates) R1” value is given as 30.1%, the “% inhibition female (individual replicates) R3” value is listed as 13.1% and the “% inhibition female (individual replicates) R4” value came out at 36.4%. In data set [2] (2µM), this molecule yielded a HitlevelF of 1. In the data set on HepG2 cells, this molecule had a Tox50 of 0.8 µM.

On to `C=CCOc1ccc2ccccc2c1CNCCCCCCNCc1c(OCC=C)ccc2ccccc12.CS(=O)(=O)O` [TCMDC-137340], for which, in data set [1], the “Selectivity Ratio M” value worked out at 1.99 and the IC50 was 1930 nM. For the same molecule, in data set [1] (PfDGFA at 2µM), the “Average inhibition male (%)” value is on record as 87.7%, the “% inhibition male (individual replicates) R1” value was found to be 90.7%, the “% inhibition male (individual replicates) R3” value was found to be 68.3% and the “% inhibition male (individual replicates) R4” value is on record as 95.6%. In data set [1] (2µM), this molecule yielded a HitlevelM of 4. Besides, in data set [2], the “Selectivity ratio F” value came out at 1.38 and the IC50 was found to be 2790 nM. Besides, in data set [2] (PfDGFA at 2µM), the “Average inhibition female (%)” value is recorded as 45.4%, the “% inhibition female (individual replicates) R1” value turned out to be 35.2%, the “% inhibition female (individual replicates) R3” value came to 31.1% and the “% inhibition female (individual replicates) R4” value stood at 51.0%. For the same molecule, the HitlevelF in data set [2] (2µM) is recorded as 2. The molecule also yielded a Tox50 in the data set on HepG2 cells of 3.85 µM.
